Results taken from ChEMBL document CHEMBL1201862, “PubChem BioAssay data set” (2004).
The source made the active and inactive calls.

Experiments:
Protein skinhead-1 = biological target: T1, Protein skinhead-1 (Caenorhabditis elegans, UniProt P34707); format: functional
T1 sequence (P34707 whole entry): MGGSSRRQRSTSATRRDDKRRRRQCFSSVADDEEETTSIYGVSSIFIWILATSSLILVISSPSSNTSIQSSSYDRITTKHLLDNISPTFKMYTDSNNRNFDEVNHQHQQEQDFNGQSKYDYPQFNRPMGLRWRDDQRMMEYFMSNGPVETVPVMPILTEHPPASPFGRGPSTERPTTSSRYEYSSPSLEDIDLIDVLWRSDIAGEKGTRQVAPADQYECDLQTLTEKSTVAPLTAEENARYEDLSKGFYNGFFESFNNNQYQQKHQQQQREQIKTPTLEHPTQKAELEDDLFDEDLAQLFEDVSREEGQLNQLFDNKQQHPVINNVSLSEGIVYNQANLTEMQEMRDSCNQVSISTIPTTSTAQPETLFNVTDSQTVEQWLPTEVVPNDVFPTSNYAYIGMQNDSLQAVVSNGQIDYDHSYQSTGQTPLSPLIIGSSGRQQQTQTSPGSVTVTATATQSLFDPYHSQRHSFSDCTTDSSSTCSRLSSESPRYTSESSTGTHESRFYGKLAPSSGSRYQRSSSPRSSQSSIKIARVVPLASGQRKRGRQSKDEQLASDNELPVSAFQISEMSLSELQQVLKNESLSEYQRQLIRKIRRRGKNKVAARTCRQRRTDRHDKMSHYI

Nonstructural protein 1 = Nonstructural protein 1 (Influenza A virus, UniProt Q194T2); format: functional, Influenza A virus (A/California/07/2009(H1N1))
INS1 = assay: beta cell apoptosis inhibitors, cytokine rescue, dose response, luminescence, retest (AID 449756); format: functional, cell-based; conditions: Rattus norvegicus;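 note: cell death triggered by IL-1 beta plus TNF-alpha plus IFN-gamma mixture; protective hits raise ATP signal compared with cytokine alone wells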
cells [1] = format: functional, cell-based
[2] = cytotoxicity in HEK-293T cells, dose response, cytotoxicity control for TCR NF-kB inhibitor project, luminescence, T-cell screen hits (AID 489026); format: functional, cell-based;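 note: cells exposed to compound about 14 hours before the viability readout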
cells [3] = format: functional, cell-based; remark: listed apart in the source
[4] = biological target: Voltage-dependent T-type calcium channel subunit alpha-1H (Homo sapiens, UniProt O95180); format: functional;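 note: channel activity triggered by adding a high calcium stimulation buffer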
[5] = microbe, parasite or virus in culture; format: functional; conditions: Mycobacterium tuberculosis
H9c2 = assay: cells; format: functional, cell-based; conditions: Rattus norvegicus, H9c2, Myocardium;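 note: confirmatory concentration-response retest of ultra-high-throughput screening hits for modulation of myocardial damage; cell death induced by hydrogen peroxide oxidative stress; compound pretreatment for 60 min then peroxide exposure for 2 h; potency is for protecting the cells against peroxide damage rather than for killing them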
H4 = assay: Luminescence Cell-Based Dose Response HTS to Identify Activators of 5'UTR Stem-Loop Driven Prion Protein mRNA Translation in H4 Neuroglioblastoma Cells. [Related pubchem assays: 1829 (Project Summary), 1814 (Primary HTS)]; format: functional; conditions: Homo sapiens
[6] = Luminescence Cell-Based Dose Response HTS to Identify Activators of Luciferase Translation or Activity in H4 […] Cells. [Related pubchem assays: 1829 (Project Summary), 1814 (Primary HTS)]; format: functional
[7] = Luminescence Cell-Based Dose Confirmation HTS to Identify Activators of 5'UTR Stem-Loop Driven Alpha-Synuclein mRNA Translation in H4 Neuroglioblastoma Cells. [Related pubchem assays: 1829 (Project Summary), 1814 (Primary HTS)]; format: functional
[8] = HepG2 cell cytotoxicity, dose response, cytotoxicity control for Shn3 inhibitor project, CellTiter-Glo, cherry-picked (AID 624134); format: functional, cell-based
[9] = control 3'UTR Renilla luciferase suppression, dose response, counter-screen for Shn3 inhibitor project, cell-based, Clone20-Shn3RL, cherry-picked (AID 624133); format: functional
[10] = Shn3 3'UTR reporter inhibitors, dose response, cell-based, Clone20 osteoblasts, firefly luciferase, cherry-picked (AID 624132); format: functional;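 note: firefly luciferase luminescence from reporter carrying the Shn3 3'UTR in osteoblasts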

Sequence of Voltage-dependent T-type calcium channel subunit alpha-1H (O95180 whole entry): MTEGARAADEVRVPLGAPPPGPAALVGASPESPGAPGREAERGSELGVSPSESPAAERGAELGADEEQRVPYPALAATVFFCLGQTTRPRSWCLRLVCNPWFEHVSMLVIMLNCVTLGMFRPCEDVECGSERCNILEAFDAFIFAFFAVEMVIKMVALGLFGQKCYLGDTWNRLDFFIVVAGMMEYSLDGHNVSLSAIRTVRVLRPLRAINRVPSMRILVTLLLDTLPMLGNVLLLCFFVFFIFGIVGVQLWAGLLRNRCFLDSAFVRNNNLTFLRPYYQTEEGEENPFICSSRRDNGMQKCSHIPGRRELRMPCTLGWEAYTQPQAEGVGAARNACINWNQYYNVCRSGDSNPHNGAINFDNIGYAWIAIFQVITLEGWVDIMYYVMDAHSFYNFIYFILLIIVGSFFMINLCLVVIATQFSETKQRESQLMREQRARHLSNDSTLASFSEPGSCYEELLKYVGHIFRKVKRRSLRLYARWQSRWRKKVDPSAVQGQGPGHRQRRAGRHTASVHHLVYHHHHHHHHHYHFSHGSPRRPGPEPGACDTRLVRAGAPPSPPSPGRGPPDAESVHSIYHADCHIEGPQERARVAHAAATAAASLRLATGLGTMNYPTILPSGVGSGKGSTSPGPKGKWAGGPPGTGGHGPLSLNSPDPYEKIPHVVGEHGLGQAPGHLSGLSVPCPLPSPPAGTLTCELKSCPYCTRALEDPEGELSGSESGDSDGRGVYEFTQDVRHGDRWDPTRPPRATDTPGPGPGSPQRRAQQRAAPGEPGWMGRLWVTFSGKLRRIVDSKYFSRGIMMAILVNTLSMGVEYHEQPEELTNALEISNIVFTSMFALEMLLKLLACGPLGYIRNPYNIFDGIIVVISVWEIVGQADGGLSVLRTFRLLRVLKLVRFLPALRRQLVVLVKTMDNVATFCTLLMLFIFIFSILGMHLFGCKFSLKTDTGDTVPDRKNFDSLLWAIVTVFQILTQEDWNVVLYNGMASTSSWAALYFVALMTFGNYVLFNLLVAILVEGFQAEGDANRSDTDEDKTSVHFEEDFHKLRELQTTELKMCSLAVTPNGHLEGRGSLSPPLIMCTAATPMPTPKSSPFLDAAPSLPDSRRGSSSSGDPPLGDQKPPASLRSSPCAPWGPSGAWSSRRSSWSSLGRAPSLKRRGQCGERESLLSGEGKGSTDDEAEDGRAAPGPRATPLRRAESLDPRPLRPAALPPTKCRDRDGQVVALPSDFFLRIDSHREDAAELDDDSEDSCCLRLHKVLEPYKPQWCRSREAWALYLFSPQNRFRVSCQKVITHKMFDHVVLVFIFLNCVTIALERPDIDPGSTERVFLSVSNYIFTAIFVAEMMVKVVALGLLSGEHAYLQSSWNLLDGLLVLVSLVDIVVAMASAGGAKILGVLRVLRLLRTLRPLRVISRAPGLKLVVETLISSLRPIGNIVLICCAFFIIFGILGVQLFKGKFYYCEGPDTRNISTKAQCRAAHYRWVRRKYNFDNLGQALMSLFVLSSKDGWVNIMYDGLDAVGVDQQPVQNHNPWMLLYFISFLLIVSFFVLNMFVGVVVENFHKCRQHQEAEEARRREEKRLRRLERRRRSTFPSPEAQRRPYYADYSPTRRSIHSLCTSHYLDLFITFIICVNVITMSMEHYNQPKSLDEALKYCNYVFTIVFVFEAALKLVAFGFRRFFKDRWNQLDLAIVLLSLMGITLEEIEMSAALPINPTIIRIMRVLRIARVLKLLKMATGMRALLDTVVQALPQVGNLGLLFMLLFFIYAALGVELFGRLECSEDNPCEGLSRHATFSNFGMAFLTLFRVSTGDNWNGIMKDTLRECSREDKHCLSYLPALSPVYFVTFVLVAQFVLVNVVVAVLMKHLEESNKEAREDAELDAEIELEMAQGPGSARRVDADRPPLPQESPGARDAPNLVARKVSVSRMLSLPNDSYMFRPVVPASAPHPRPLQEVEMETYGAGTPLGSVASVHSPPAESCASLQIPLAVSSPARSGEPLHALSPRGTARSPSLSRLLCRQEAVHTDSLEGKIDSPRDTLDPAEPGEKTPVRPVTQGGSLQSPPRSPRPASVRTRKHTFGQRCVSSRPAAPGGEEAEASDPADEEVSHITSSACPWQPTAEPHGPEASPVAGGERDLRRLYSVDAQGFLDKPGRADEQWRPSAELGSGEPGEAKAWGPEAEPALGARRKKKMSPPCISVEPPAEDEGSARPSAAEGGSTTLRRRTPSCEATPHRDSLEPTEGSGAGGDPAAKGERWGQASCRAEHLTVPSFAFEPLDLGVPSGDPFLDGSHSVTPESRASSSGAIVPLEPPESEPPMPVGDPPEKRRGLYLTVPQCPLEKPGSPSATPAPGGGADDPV
Sequence of Nonstructural protein 1 (Q194T2 whole entry): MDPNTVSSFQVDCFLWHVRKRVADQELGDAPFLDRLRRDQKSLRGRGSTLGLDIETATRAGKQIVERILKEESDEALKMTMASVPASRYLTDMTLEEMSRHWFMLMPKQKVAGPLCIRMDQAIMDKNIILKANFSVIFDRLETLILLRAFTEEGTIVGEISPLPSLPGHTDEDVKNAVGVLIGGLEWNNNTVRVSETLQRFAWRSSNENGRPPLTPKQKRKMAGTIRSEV

For CC(c1ccccc1)N1C(=O)c2cccnc2C1=O (stereo not drawn), the IC50 (Protein skinhead-1) was > 100 µM (inactive).
In the case of Oc1ccccc1C=NNC(=S)Nc1ccc(F)cc1, the IC50 (Nonstructural protein 1) is reported as 12.7 µM (active).
In the case of CCN(CC)S(=O)(=O)c1ccc(N(C)CCc2ccc(OC)c(OC)c2)nc1, the IC50 (Protein skinhead-1) is reported as > 100 µM (inactive).
For O=C(Oc1ccccc1)N1CCN(c2ccc(F)cc2)CC1, the IC50 (Protein skinhead-1) was 78.7 µM (inactive).
For Cc1ccc(NC(=O)CSc2n[nH]c(-c3ccccn3)n2)cc1, the IC50 (Nonstructural protein 1) was 6.74 µM (active).
For CCN(CC)c1ccc(/C=N/NC(=O)c2cccc(S(=O)(=O)Nc3ccccc3OC)c2)c(O)c1, the AC50 (INS1) was 237 nM (active), the EC50 (cells [1]) was 2.89 µM (active) and the IC50 [2] was > 80 µM (inactive). For the same compound, the EC50 (cells [3]) was 85.3 µM (active).
In the case of Cc1[nH]c2ccccc2c1C1C(c2ccccc2)=NN=C(C(C)C)N1O (stereo not drawn), the EC50 [4] is reported as 16.1 µM (active).
For C=CCNc1ncnc2sc(SC)nc12, the IC50 (Protein skinhead-1) was > 100 µM (inactive).
For Cc1ccc(N(C)C(=O)Oc2cccc3ccc(C)nc23)cc1, the EC50 [4] was 12.3 µM (active).
For CC(Sc1nnc(NC2CCCCC2)s1)C(=O)Nc1ccc2c(c1)C(=O)c1ccccc1C2=O (stereo not drawn), the CC50 [5] was 29.7 µM (active).
In the case of COc1cccc(C(=O)NCC(=O)N2CCC3(CC2)NCCc2[nH]cnc23)c1, the IC50 (Protein skinhead-1) is reported as > 100 µM (inactive).
For COC(=O)[C@@]12CCCCN1[C@H](c1ccc(-c3cc(C(C)=O)cs3)cc1)[C@H]1C(=O)N(C)C(=O)[C@H]12, the IC50 (H9c2) was > 79 µM (inactive).
In the case of O=[N+]([O-])c1ccc(Nc2ccccc2)cc1, the IC50 (Protein skinhead-1) is reported as 12.7 µM (active).
With Cc1ccc(C)c(CSc2nc(O)c3c[nH]nc3n2)c1 the IC50 [2] was > 80 µM (inactive).
In the case of O=C(CN1C(=O)COc2ccccc21)Nc1ccc(F)cc1, the EC50 (H4) is reported as 113 µM (active), the EC50 [6] is reported as 13.8 µM (active) and the EC50 [7] is reported as 11.9 µM (active). For the same compound, the IC50 (Nonstructural protein 1) was 3.73 µM (active).
For Fc1ccc2[nH]c3c(NCc4ccccc4)ncnc3c2c1, the AC50 [8] was 30.1 µM (active), the AC50 [9] was 13.1 µM (active) and the CC50 [5] was > 40 µM (active). For the same compound, the AC50 [10] was 3.09 µM (active).
With COc1ccc(-c2nc(NC(=O)c3[nH]c(C)c(C(C)=O)c3C)sc2C)cc1 the CC50 [5] was > 40 µM (active).
For S=C(NC1CCCCC1)N(CCc1nc2ccccc2[nH]1)C1CCCC1, the EC50 [4] was 5.18 µM (active).
For CCCn1c(=O)c(C(=O)NCCc2ccc(Cl)cc2)c(O)c2ccccc21, the IC50 (H9c2) was > 79 µM (inactive).
